Measured values taken from PMC12652113, “Fluorescent Albumin-Binding N-Propylbenzene Indolenine-Based Squaraines as Potential Candidates for Prostate Cancer Photodynamic Therapy Photosensitizers” (International Journal of Molecular Sciences, 2025).
Read-outs that look alike come from different tables or passages of the source.

Assays:
[1] = Absorption and fluorescence photophysical characterization in organic solvents; format: physicochemical
Description: UV–Vis spectra were recorded on a Perkin-Elmer Lambda 25 spectrophotometer (Perkin-Elmer, Waltham, MA, USA) using Hellma Analytics quartz cuvettes (1 cm path length; Hellma Analytics, Müllheim, Germany). Spectral data are reported as maximum absorption wavelength (λmax, nm) and molar absorptivity (ε, M^−1·cm^−1). The latter was calculated according to the Lambert–Beer law from calibration plots of absorbance at λmax versus known dye concentrations.
Ultraviolet–visible absorption spectra were obtained at room temperature using a PerkinElmer Lambda 25 spectrophotometer, while fluorescence emission data were collected on a Horiba Jobin Yvon FluoroMax-4 fluorometer. Singlet oxygen and photostability tests and measurements were carried out on a BioRad xMark microplate reader (Bio-Rad, Hercules, CA, USA).
[…] All stock solutions were prepared at 0.67 mM concentration and stored in the dark at 4 °C until further use. For spectroscopic characterization, 1.0 µM stock solutions of the squaraine dyes in dimethyl sulfoxide were serially diluted into a series of solvents (chloroform, dimethyl sulfoxide, methanol, and phosphate buffer) to obtain at least five defined concentrations. The absorption spectra of these dilutions were recorded and used to calculate molar extinction coefficients according to the Beer–Lambert law. Additional working solutions at a 1.0 µM concentration were prepared in dimethyl sulfoxide and buffer, and 1.0% Triton X-100 was added where required to investigate dye aggregation.
The emission areas were integrated, and relative quantum yields were calculated following established methodologies, considering both absorbance at the excitation wavelength and the refractive index of the solvent. The calculation was performed using Equation (2), where “dye” and “ref” denote the squaraine dyes and the reference compound, respectively; I corresponds to the integrated emission intensity, A to the absorbance value at the excitation wavelength, and η to the refractive index of the solvent:(2) ΦF(dye)= ΦF(Std)Idye/Iref Aref/Adye ηdye2/ηref2

[2] = Photophysical properties in phosphate buffer in the absence of HSA; format: physicochemical; conditions: phosphate buffer (pH 7.4)
Description: Squaraine dyes were dissolved in dimethyl sulfoxide, whereas zinc phthalocyanine required dimethylformamide as a solvent. All stock solutions were prepared at 0.67 mM concentration and stored in the dark at 4 °C until further use. For spectroscopic characterization, 1.0 µM stock solutions of the squaraine dyes in dimethyl sulfoxide were serially diluted into a series of solvents (chloroform, dimethyl sulfoxide, methanol, and phosphate buffer) to obtain at least five defined concentrations. The absorption spectra of these dilutions were recorded and used to calculate molar extinction coefficients according to the Beer–Lambert law. Additional working solutions at a 1.0 µM concentration were prepared in dimethyl sulfoxide and buffer, and 1.0% Triton X-100 was added where required to investigate dye aggregation.
(§1) For fluorometric experiments, the squaraine stock solutions were initially prepared in dimethylformamide and subsequently diluted with phosphate buffer for the protein–dye interaction analysis. Human serum albumin stock solution was then added to these mixtures, while keeping the dye concentration fixed at 2.0 µM and varying the protein concentration from 0 to 3.0 µM (0.0 to 3.0 µM for squaraines 5, 9, and 11, and from 0 to 6.0 µM for squaraine 13). Fluorescence intensities of the resulting solutions were recorded after 0, 3, and 24 h of incubation with the protein. The excitation wavelengths and excitation/emission slit widths used for the measurements were optimized for each dye, as listed in Table 6.

[3] = target: human serum albumin (HSA) (Homo sapiens, UniProt P02768); assay: Fluorometric squaraine-albumin binding titration; conditions: for detection limit (DL): HSA detection, DL=3σ/S; for quantification limit (QL): HSA quantification, QL=10σ/S; for fluorescence intensity without protein (F0): dye 2.0 µM in phosphate buffer, no HSA; for fluorescence intensity at the highest protein concentration (F): dye 2.0 µM, highest HSA concentration; for Stokes shift (ΔS) / absorption maximum (λabs) / emission maximum (λem) / fluorescence quantum yield (ΦF): phosphate buffer (pH 7.4), HSA presence; for F/F0: ratio of fluorescence with HSA to fluorescence without HSA; for incubation time to reach maximum fluorescence with HSA: room temperature, protected from light
Sequence of human serum albumin (HSA) (P02768 25-609): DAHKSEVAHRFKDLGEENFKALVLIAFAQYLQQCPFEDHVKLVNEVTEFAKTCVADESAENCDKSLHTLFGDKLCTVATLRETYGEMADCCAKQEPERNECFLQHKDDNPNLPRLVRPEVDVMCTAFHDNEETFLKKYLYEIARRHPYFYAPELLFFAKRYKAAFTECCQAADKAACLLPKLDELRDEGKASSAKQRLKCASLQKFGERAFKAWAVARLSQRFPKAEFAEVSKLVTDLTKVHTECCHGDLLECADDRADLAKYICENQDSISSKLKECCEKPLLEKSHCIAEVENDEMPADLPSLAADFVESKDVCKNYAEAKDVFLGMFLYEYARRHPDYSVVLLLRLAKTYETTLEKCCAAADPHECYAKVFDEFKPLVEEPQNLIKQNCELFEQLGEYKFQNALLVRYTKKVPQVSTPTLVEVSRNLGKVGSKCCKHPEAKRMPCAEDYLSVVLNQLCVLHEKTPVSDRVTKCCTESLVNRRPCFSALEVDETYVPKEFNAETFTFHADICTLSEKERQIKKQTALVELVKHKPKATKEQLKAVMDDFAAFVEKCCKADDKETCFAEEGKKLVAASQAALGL
Description: as §1
The squaraine-albumin binding constants was calculated using the Benesi–Hildebrand equation (Equation (3)) based on the data obtained from the fluorescence experiments:(3) 1/Fx−F0=1/F∞−F0+1/Kb(F∞−F0)1/[HSA] where F0 is the fluorescence intensity of the squaraine in albumin-free buffer, Fx is the fluorescence observed after protein incubation at a specific concentration, F∞ is the fluorescence at the point of complete interaction, Kb is the binding constant, and [HSA] is the albumin concentration.
Quantification and detection limits (QL and DL, respectively) were determined from a calibration curve of maximum fluorescence intensity against protein concentration. The slope of this curve was then used to calculate the method’s sensitivity using Equations (4) and (5):(4) QL=10σ/S (5) DL=3σ/S where σ refers to the blank standard deviation and S (sensitivity) to the linear regression slope between the fluorescence intensity and albumin concentration.

[4] = DMSO, relative to zinc phthalocyanine
[5] = phosphate buffer, bound vs free
[6] = slope of fluorescence intensity vs HSA concentration

Row | SMILES | Stokes shift (ΔS) ([1]; DMSO) [nm] | absorption maximum (λabs) ([1]; DMSO) [nm] | emission maximum (λem) ([1]; DMSO) [nm] | molar absorption coefficient (ε) ([1]; DMSO) [M⁻¹ cm⁻¹] | fluorescence quantum yield (ΦF) [1, 4] | Stokes shift (ΔS) ([1]; chloroform (CFM)) [nm] | absorption maximum (λabs) ([1]; chloroform (CFM)) [nm] | emission maximum (λem) ([1]; chloroform (CFM)) [nm] | fluorescence quantum yield (ΦF) ([1]; chloroform (CFM)) | molar absorption coefficient (ε) ([1]; chloroform (CFM)) [M⁻¹ cm⁻¹] | Stokes shift (ΔS) ([1]; methanol (MeOH)) [nm] | absorption maximum (λabs) ([1]; methanol (MeOH)) [nm] | emission maximum (λem) ([1]; methanol (MeOH)) [nm] | fluorescence quantum yield (ΦF) ([1]; methanol (MeOH)) | molar absorption coefficient (ε) ([1]; methanol (MeOH)) [M⁻¹ cm⁻¹] | absorption maximum (λabs) [2] [nm] | fluorescence quantum yield (ΦF) [2] | molar absorption coefficient (ε) [2] [M⁻¹ cm⁻¹] | detection limit (DL) [3] [nM] | quantification limit (QL) [3] [nM] | other results
1 | CC1(C)C(=CC2=C([O-])C(=CC3=[N+](CCCc4ccccc4)c4ccccc4C3(C)C)C2=O)N(CCCc2ccccc2)c2ccccc21 [Dye 5, 4-[3,3-Dimethyl-1-(3-phenylpropyl)-indol-1-ium-2-ylmethylene]-2-[3,3-dimethyl-1-(3-phenylpropyl)indolin-2-ylidenemethyl]-3-oxocyclobut-1-en-1-olate] | 13 | 646 | 659 | 293000 | 1.00 | 1 | 638 | 639 | 0.46 | 428000 | 13 | 631 | 644 | 0.16 | 422000 | 605 | 0.02 | 89000 | 266 | 886 | Stokes shift (ΔS) [2]: 91 nm; emission maximum (λem) [2]: 696 nm; sensitivity (S) [3]: 209000 nM⁻¹; fluorescence intensity without protein (F0) [3]: 11.46 a.u.; fluorescence intensity at the highest protein concentration (F) [3]: 680.15 a.u.; Stokes shift (ΔS) [3]: 45 nm; absorption maximum (λabs) [3]: 604 nm; emission maximum (λem) [3]: 649 nm; fluorescence quantum yield (ΦF) [3]: 0.20; blue shift in maximum emission wavelength upon HSA binding [3, 5]: 47 nm; reduction in Stokes shift upon HSA binding [3, 5]: 50%; F/F0 [3]: 59.35; incubation time to reach maximum fluorescence with HSA ([3]; read at 0 min, 3 h, 24 h): 24 h; sensitivity (S) [3, 6]: 209000 nM⁻¹
2 | CC1(C)C(=CC2=C(NCc3ccc4ccc5cccc6ccc3c4c56)C(=CC3=[N+](CCCc4ccccc4)c4ccccc4C3(C)C)C2=O)N(CCCc2ccccc2)c2ccccc21.[I-] [Dye 14, 2-({3-[3,3-dimethyl-1-(3-phenylpropyl)indolin-2-ylidenemethyl]-4-oxo-2-[(pyren-1-ylmethyl)amino]cyclobut-2-en-1-ylidene}methyl)-3,3-dimethyl-1-(3-phenylpropyl)-indol-1-ium Iodide] | 15 | 661 | 676 | 197000 | 0.05 | 13 | 658 | 671 | 0.06 | 281000 | 13 | 650 | 663 | 0.01 | 285000 | 672 | 0.00 | 67000 | 361 | 1203 | fluorescence intensity without protein (F0) [3]: 4.12 a.u.; fluorescence intensity at the highest protein concentration (F) [3]: 115.89 a.u.; Stokes shift (ΔS) [3]: 4 nm; absorption maximum (λabs) [3]: 663 nm; emission maximum (λem) [3]: 667 nm; fluorescence quantum yield (ΦF) [3]: 0.01; F/F0 [3]: 28.13; incubation time to reach maximum fluorescence with HSA ([3]; read at 0 min, 3 h, 24 h): 24 h; sensitivity (S) [3, 6]: 39 µM
3 | CC1(C)C(=CC2=C(N)C(=CC3=[N+](CCCc4ccccc4)c4ccccc4C3(C)C)C2=O)N(CCCc2ccccc2)c2ccccc21.[I-] [Dye 9, 2-{2-Amino-3-[3,3-dimethyl-1-(3-phenylpropyl)indolin-2-ylidenemethyl]-4-oxocyclobut-2-en-1-ylidenemethyl}-3,3-dimethyl-1-(3-phenylpropyl)-indol-1-ium Iodide] | 12 | 652 | 664 | 232000 | 0.12 | 9 | 647 | 656 | 0.08 | 330000 | 12 | 640 | 652 | 0.02 | 303000 | 605 | 0.00 | 58000 | 324 | 1079 | Stokes shift (ΔS) [2]: 37 nm; emission maximum (λem) [2]: 642 nm; sensitivity (S) [3]: 318000 nM⁻¹; fluorescence intensity without protein (F0) [3]: 9.30 a.u.; fluorescence intensity at the highest protein concentration (F) [3]: 917.53 a.u.; Stokes shift (ΔS) [3]: 8 nm; absorption maximum (λabs) [3]: 651 nm; emission maximum (λem) [3]: 659 nm; fluorescence quantum yield (ΦF) [3]: 0.07; F/F0 [3]: 98.66; incubation time for maximum interaction with HSA ([3]; read at 0 min, 3 h, 24 h): immediately upon addition to the protein solution; sensitivity (S) [3, 6]: 318 µM
